# Measurements: patent US8623996B2, “Cold active enzyme and method thereof” (University Putra Malaysia, priority 2010, dated 2014)
# Square brackets hold non-standard residues; d marks the D form. Peptide text beside a SMILES is read from it. * marks the point of attachment. Sta = CC(C)C[C@H](N)[C@@H](O)CC(=O)O; Isovaleryl = CC(C)CC(=O)*
# Columns and labels:
# [1] = system: isolate PI12; experiment: Antibiotic resistance of isolate PI12; format: cell-based, Leucosporodium antarcticum
# Description: The bacterium was grown in nutrient broth and agar plates at 4° C. without shaking. Visible growth was observed after one week of incubation. […] The growth of isolate PI12 was inhibited at 25-37° C.
# Extracellular enzyme activities, by isolate PI12 namely protease and lipase, were also observed.
# [2] = system: LipPI12 lipase; experiment: Substrate specificity of LipPI12 lipase, para-nitrophenyl esters; format: biochemical, Leucosporodium antarcticum PI12; settings: versus butyrate (C4), caprylate (C8), laurate (12)
# Description: Values in bracket represent the fatty acid carbon chain length.
# (§1) Various triglycerides (triacetin, tributyrin, tricaprylin, triolein) p-nitrophenol esters (p-nitrophenylbutyrate, p-nitrophenylcaprylate, p-nitrophenyllaurate, p-nitrophenylpalmitate) and natural oils (olive oil, soy bean oil, corn oil, sun flower oil, rice brain oil, coconut and palm oil) were tested for the cold active LipPI12 lipase activity. It was assayed at 20° C. for 30 min colorimetrically. The capability of the LipPI12 to hydrolyze different carbon chain lengths of triglycerides was investigated. […] LipPI12 lipase substrate specificity towards medium chain length was also observed in natural oils. […] LipPI12 low efficiency or inability to catalyze such substrate was probably due to improper substrate and active coordination and limited substrate accessibility as a result of cis conformation of aliphatic chain when compared to the trans conformation which is much linear. Artificial substrate was also used in the form of esters, namely para-nitrophenyl (pNP) esters containing carbon chain ranging from C4 (butyrate) to C16 (palmitate). […] Certainly, LipPI12 broad substrate specificity, which posed a huge prospect in application and the understanding of mechanism, is important. Nonetheless, the profile of substrate is a crucial point, where accessibility determines substrate specificity. […]
# [3] = system: LipPI12 lipase; experiment: Organic solvent tolerance of LipPI12 lipase; format: biochemical, Leucosporodium antarcticum PI12; settings: 3 ml enzyme solution + 1 ml solvent, 20° C., 30 min
# Description: (§2) Protease activity ?; Lipase activity ? .
# (§3) Study On LipPI12 organic solvent stability was carried out in reaction mixture containing purified LipPI12 and various solvents. The mixture was incubated at 20° C. with shaking rates at 150 rpm for 30 min. Control reaction was done by mixing the enzyme with water. Relative activity of lipase was determined according Kwon and Rhee (1986) method. Whereby protease assay was done according to Brock et, al., (1982). The effects of various organic solvents on the stability of the cold active LipPI12 were studied. A mixture of 3 ml enzyme solution and 1 ml of an organic solvent was incubated at 20° C. with shaking, and the remaining activity was measured after 30 min of incubation.
# [4] = system: LipPI12 protease; experiment: Effect of inhibitors on LipPI12 protease activity; format: biochemical, Leucosporodium antarcticum PI12; settings: 1 mM inhibitor, 20° C., 30 min
# Description: (§4) The final concentration of inhibitors was 1 mM. The LipPI12 lipase and protease were assayed with olive oil as substrate after incubation with inhibitors for 30 min.
# (§5) Partial understanding of the enzyme catalysis involves the reaction with various inhibitors. […] Various inhibitors were tested at a final concentration of 1 mM (PMSF, EDTA and pepstatin). The purified enzyme was treated with various inhibitors at 20° C. for 30 min prior to measuring the residual activity colorimetrically.
# [5] = system: LipPI12 protease; experiment: Effect of surfactants on LipPI12 protease activity; format: biochemical, Leucosporodium antarcticum PI12; settings: 0.1% surfactant, 20° C., 30 min
# Description: (§6) The purified LipPI12 lipase and protease were mixed with surfactants (final concentration of 0.1%, v/v) and was incubated at 20° C. for 30 min prior to enzymatic assays. Lipase activity ?; Protease activity ? .
# (§7) Surfactants or surface active agents are the most important constituents in the formulation of detergent. Enzyme and surfactants form unique interactions that affect the function of enzyme, i.e. whether to stabilize or destabilize. […] Lipase and protease LipPI12 was treated with various surfactants at a concentration of […] at 20° C. for 30 min before being subjected to lipase and protease assays colorimetrically. The study on the effect of LipPI12 lipase and its protease on various surfactants was carried out using 0.1% of surfactant, namely from TWEEN™ 20-80, TRITON™ X-100, SDS and SLS. […] Remarkably, LipPI12 protease was activated in the presence of TWEEN™ 80 and SLS, with 30 and 70% enhancement, respectively. […] The incubation with SDS also seemed to affect LipPI12 protease catalytic activity, where it dropped to only 27% of its control activity.
# [6] = system: LipPI12 lipase; experiment: Effect of surfactants on LipPI12 lipase activity; format: biochemical, Leucosporodium antarcticum PI12; settings: 0.1% surfactant, 20° C., 30 min
# Description: as §6, §7
# Target sequence in this assay (as listed by the source): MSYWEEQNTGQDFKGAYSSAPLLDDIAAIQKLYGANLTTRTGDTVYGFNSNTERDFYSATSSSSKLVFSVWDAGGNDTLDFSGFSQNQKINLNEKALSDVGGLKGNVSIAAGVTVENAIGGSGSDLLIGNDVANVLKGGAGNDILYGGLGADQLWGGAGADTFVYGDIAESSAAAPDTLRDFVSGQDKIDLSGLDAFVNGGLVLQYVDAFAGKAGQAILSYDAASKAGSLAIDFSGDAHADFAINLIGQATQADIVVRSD
# [7] = system: LipPI12 protease; experiment: Effect of metal ions on LipPI12 protease activity; format: biochemical, Leucosporodium antarcticum PI12; settings: 1 mM metal ion, 30 min at 20° C.
# Description: (§8) Both the lipase and protease were treated with 1 mM of various metal ions for 30 mins prior to enzyme assays. Lipase activity ?; protease activity ? .
# (§9) Various metal ions were tested by treating the purified enzyme with 1 mM of metal ions such as Na^+, Mg^2+, Ca^2+, Fe^2+, Mn^2+, K^+, Zn^2+ and Cu^2+ for 30 min at 20° C. It was subjected to lipase and protease assays after treatment. The effects of various metal ions were tested on the purified LipPI12 activity and the remaining activity was assayed using olive oil emulsion. […] This is an indication which explains the role of Ca ion which may work as a stabilizer to the molecule, as predicted in the LipPI12 3D model. Whereas, the beta roll motif, served as a metal binding site, presumably predicted for the Ca ions. […] Na^+ Mg^2+ and Fe^2+ have toxic effect to the enzyme. Other metal ions tested were CuCl2, ZnCl2 and MnCl2, which had obviously made the lipase to be slightly stable and with no elimination of activity relatively not less than 50% (FIG. 27).
# Protease LipPI12 looks more susceptible to all metal ions tested. […] The incubation with Na^+ and […] ions had done little effect as compared to the destabilizing manner shown by divalent ions of Cu^2+ and Mn^2+. […] A novel binding site for Zn ion may be involved in protease LipPI12. Structural elucidation is the best way to decipher the findings. The activation effect of Ca ion in both lipase and protease of LipPI12 is caused by the nature of the psychrophilic enzyme. Huge conformational movement will probably allow active residue rearrangement and can provide better accessibility of substrate, thus giving rise to a unique enzyme like LipPI12. This is achieved via local flexibility and mobility as the enzyme from psychrophiles evolves to withstand the extreme conditions, not only the coldness but also the low water content and substrate availability. Metal ions have been recognized to have effects on the activity of various enzymes. They bind the substrate and orient them properly for the reaction to occur. Besides mediating oxidation-reduction reactions, they can also electrostatically stabilize or shield negative charges. On the other hand, based on the correlation between the enzymes and metal ions, these enzymes could be classified into two types: Metalloenzymes and Metal-activated enzyme. In Metalloenzyme, metal ions such as Fe, Cu, Mn, Co are tightly bound ion pairs. While in the metal-activated enzymes, the metal ions such as Na, K, Mg, and Ca are loosely bound metal ions from the solution. Based on these facts, the protease LipPI12 is considered as a metal-activated enzyme.
# [8] = system: LipPI12 lipase; experiment: Effect of inhibitors on LipPI12 lipase activity; format: biochemical, Leucosporodium antarcticum PI12; settings: 1 mM inhibitor, 20° C., 30 min
# Description: as §4, §5
# [9] = system: LipPI12 lipase; experiment: Effect of metal ions on LipPI12 lipase activity; format: biochemical, Leucosporodium antarcticum PI12; settings: 1 mM metal ion, 30 min at 20° C.
# Description: as §8, §9
# [10] = system: LipPI12 protease; experiment: Organic solvent tolerance of LipPI12 protease; format: biochemical, Leucosporodium antarcticum PI12; settings: 3 ml enzyme solution + 1 ml solvent, 20° C., 30 min
# Description: as §2, §3
# [11] = system: LipPI12 lipase; experiment: Substrate specificity of LipPI12 lipase, pure triglycerides; format: biochemical, Leucosporodium antarcticum PI12; settings: 20° C., 30 min, substrate 1:1 v/v
# Description: Values in bracket represent the carbon chain length of each substrate. LipPI12 lipase was assayed with the pure triglycerides (1:1, v/v) as substrate.
# as §1, with “important.” for “important. Nonetheless, the profile of substrate is a crucial point, where accessibility determines substrate specificity.”
molecule,measurement,setting,value
CC1(C)S[C@@H]2[C@H](NC(=O)[C@H](N)c3ccccc3)C(=O)N2[C@H]1C(=O)O [Ampicilin],resistance of isolate PI12,[1],resistance
"CCCCCCCCCCCCCCCC(=O)Oc1ccc([N+](=O)[O-])cc1 [pNP palmitate, p-nitrophenylpalmitate]",increment of activity relative to other pNP esters,[2],60%
CCCCCC [hexane],effect of organic solvent on lipase,[3],total elimination of activity
CC(C)CC(=O)N[C@H](C(=O)N[C@H](C(=O)N[C@@H](CC(C)C)[C@@H](O)CC(=O)N[C@@H](C)C(=O)N[C@@H](CC(C)C)[C@@H](O)CC(=O)O)C(C)C)C(C)C [Pepstatin] (Isovaleryl-VV[Sta]A[Sta]-OH),inhibition of protease (words),[4],drastically eliminated
same,inhibition of protease (words),[4]; listed as pepstatin,inhibited
TWEEN™ 80,enhancement of protease activity,[5],30%
"CCCCCCCCCCCCOS(=O)(=O)[O-].[Na+] [SLS, Sodium lauryl sulphate]",enhancement of protease activity,[5],70%
c1ccccc1 [benzene],effect of organic solvent on lipase,[3],good stability
TRITON™ X-100,effect of surfactant on protease activity,[5],retain its activity
same,effect of surfactant on lipase activity,[6],retains its activity
[Cl][Cu][Cl] [CuCl2],effect of metal ion on protease activity,[7],do not affect
same,protease relative activity as compared to the control,[7],4%
CCCCCCCCCCCCOS(=O)(=O)[O-].[Na+] [SDS],"protease activity remaining, of control activity",[5],27%
"O=S(=O)(F)Cc1ccccc1 [PMSF, phenylmethylsulphonyl fluoride]",inhibition of protease (words),[4],partially inhibited
same,inhibition of lipase,[8],partially inhibited
TWEEN™ 60,effect of surfactant on protease activity,[5],retain its activity
same,effect of surfactant on lipase activity,[6],retains its activity
CCCCCCCCCCCC [dodecane],effect of organic solvent on lipase,[3],good stability
[Cl][Mn][Cl] [MnCl2],protease relative activity as compared to the control,[7],40%
[Fe+2] [Fe^2+],protease relative activity as compared to the control,[7],~100%
same,effect of metal ion on lipase activity,[9],toxic effect
TWEEN™ 40,effect of surfactant on protease activity,[5],retain its activity
same,effect of surfactant on lipase activity,[6],retains its activity
[Cl][Fe]([Cl])[Cl] [FeCl3],effect of metal ion on protease activity,[7],do not affect
CCCCCCCCCCCCCCCC [hexadecane],effect of organic solvent on protease,[10],tolerance
same,effect of organic solvent on lipase,[3],good stability
[K+] [IC],effect of metal ion on protease activity,[7],little effect
Cc1ccccc1 [toluene],decrease of lipase activity,[3],more than 50%
O=S(=O)([O-])[O-].[Zn+2] [ZnSO4],effect of metal ion on protease activity,[7],do not affect
[Ca+2].[Cl-].[Cl-] [CaCl2],protease relative activity as compared to the control,[7],~100%
same,effect of metal ion on lipase activity,[9],activator
same,lipase activity as compared to the control,[9]; olive oil emulsion,115%
CCCO [propanol],lipase activity in solvent,[3]; control in water,> 160%
[Cl-].[Cl-].[Zn+2] [ZnCl2],effect of metal ion on protease activity,[7],activator
same,protease relative activity as compared to the control,[7],170%
[Na+] [Na^+],effect of metal ion on protease activity,[7],little effect
same,effect of metal ion on lipase activity,[9],toxic effect
CCCCCCCCCC [decane],effect of organic solvent on lipase,[3],total elimination of activity
O=C(N[C@H](CO)[C@H](O)c1ccc([N+](=O)[O-])cc1)C(Cl)Cl [Chloramphenicol],resistance of isolate PI12,[1],resistance
"[Cl-].[Cl-].[Mg+2] [Mg^2+, MgCl2]",effect of metal ion on protease activity,[7],activator
same,protease relative activity as compared to the control,[7],~100%
same,effect of metal ion on lipase activity,[9],toxic effect
CCCCCCCCCCCC(=O)OCC(COC(=O)CCCCCCCCCCC)OC(=O)CCCCCCCCCCC [trilaurin],"relative activity, triglyceride as substrate",[11],100%
dimethylsulfonyl,effect of organic solvent on protease,[10],tolerance
same,increase of lipase activity,[3],~80%
"O=C(O)CN(CCN(CC(=O)O)CC(=O)O)CC(=O)O [EDTA, ethylene diamine tetraacetic acid]",inhibition of protease (words),[4],partially inhibited
same,inhibition of lipase,[8],partially inhibited
CCOCC [Diethyleter],effect of organic solvent on lipase,[3],total elimination of activity
